“Also recorded” adds a separate entry of the source.
Experiments:
[1] = test system: hM4Di-expressing MnPO^GLP1r neurons; test: Slice current-clamp recording, CNO on hM4Di-expressing MnPO^GLP1r neurons; format: cell-based, mice; conditions: CNO application
From the text: Procedures for preparation of acute brain slices and recordings with optogenetic stimulations were similar to those described previously^[10],[36]. After decapitation, the brain was removed and immersed in ice-cold solution. Coronal slices ([…]) were cut using a vibratome (VT-1200s, Leica) and moved into HEPES-holding solution (NaCl 92, KCl 2.5, NaH2PO4 1.2, NaHCO3 30, HEPES 20, glucose 25, Na-ascorbate 5, Thiourea 2, Na14 pyruvate 3, MgSO4 2, CaCl2 2, pH 7.35). The slices were allowed to recover at 33° C. for 30 min and then held at room temperature ([…]) until use.
While recording, slices were perfused continuously (˜2 mL/min) with artificial cerebrospinal fluid (ACSF-NaCl 124, KCl2.5, NaH2PO4 1.2, NaHCO3 24, glucose 25, MgSO4 1, CaCl2 2) at 25° C. Neurons were visualized and targeted using an upright IR19 DIC microscope (BX51WI, Olympus). […] In order to confirm the PSCs recorded were GABAergic, picrotoxin (150 μM) was applied through the bath in part of the experiments. […] CNO (˜6 μM) was applied by a puff (30 s) from another glass pipette placed ˜50 μm from the recorded cell.

[2] = test system: MnPO^nNOS neurons; test: Drinking assays with chemogenetic inhibition of MnPO^nNOS neurons by CNO; format: in vivo, mice; conditions: hM4Di in MnPO^nNOS, CNO injection 10 mg/kg
Experimental: For water-restriction experiments, animals were provided with 1 mL of water daily. For food restriction experiments, animals were provided 0.5 pellets/20 g body weight daily. All assays were performed in a modified lickometer as described previously^[35] or Biodaq monitoring system (Research Diets Inc). For all photometry assays, animals were acclimatized for 10-15 min in the lickometer cage before stimuli were given.
Long-term access assays: Optogenetic Testing—For FIGS. 1L-N and FIGS. 7L-O, satiated mice were given ad libitum access to water for 20 min with photostimulation. Photostimulation was delivered for 1-s followed by 3-s intervals throughout the behavioral sessions. For FIGS. 2J-M and FIGS. 11C-E, mice were given access to water for 20 min after 24 h water-restriction, and photostimulation was delivered for the first 10 min. For feeding assays (FIGS. 2J-M), animals were single-housed in Biodaq cages after 24 h food-restriction, and chow intake was measured for 20 min with or without light stimulation. For acute inhibition experiments, mice were given access to 150 mM NaCl (FIGS. 5D-E, FIGS. 13E-F), water (FIGS. 1L-N, FIGS. 7L-O, FIGS. 13A-D, FIGS. 13G-H) for 20-30 min after 24 h water-restriction or 300 mM sucrose (FIGS. 1L-N, FIGS. 7L-O) after food-restriction. For all acute inhibition experiments, CNO was injected at 10 mg/kg body weight, 30 min prior to the start of the behavior session. For acute activation experiments, CNO was injected at 1 mg/kg body weight (FIGS. 12L-M), 30 min prior to the start of the behavior session. For FIG. 3A, FIGS. 9A-C, and FIG. 13L, water or saline access was provided for 30 min after 24 hours of water restriction. For FIGS. 4A-B, water or HydroGel (ClearH2O) in a cup was provided for 30 min after 24 and 36 hours of water restriction, respectively. The weight of the cup was measured before and after the behavior session. For FIGS. 4K-L, 0.5 pellets of chow was provided for 30 min after 24 h food-restriction. The entire session was recorded using a camera at 30 fps and ingestion episodes were manually annotated. […]

[3] = test system: mCherry control animals; test: mCherry controls for acute inhibition (CNO without hM4Di); format: in vivo, mice
Experimental: Long-term access assays: Optogenetic Testing—For FIGS. 1L-N and FIGS. 7L-O, satiated mice were given ad libitum access to water for 20 min with photostimulation. Photostimulation was delivered for 1-s followed by 3-s intervals throughout the behavioral sessions. For FIGS. 2J-M and FIGS. 11C-E, mice were given access to water for 20 min after 24 h water-restriction, and photostimulation was delivered for the first 10 min. For feeding assays (FIGS. 2J-M), animals were single-housed in Biodaq cages after 24 h food-restriction, and chow intake was measured for 20 min with or without light stimulation. For acute inhibition experiments, mice were given access to 150 mM NaCl (FIGS. 5D-E, FIGS. 13E-F), water (FIGS. 1L-N, FIGS. 7L-O, FIGS. 13A-D, FIGS. 13G-H) for 20-30 min after 24 h water-restriction or 300 mM sucrose (FIGS. 1L-N, FIGS. 7L-O) after food-restriction. For all acute inhibition experiments, CNO was injected at 10 mg/kg body weight, 30 min prior to the start of the behavior session. For acute activation experiments, CNO was injected at 1 mg/kg body weight (FIGS. 12L-M), 30 min prior to the start of the behavior session. […] The weight of the cup was measured before and after the behavior session. […] The entire session was recorded using a camera at 30 fps and ingestion episodes were manually annotated.

C[N+]1([O-])CCN(C2=Nc3cc(Cl)ccc3Nc3ccccc32)CC1 [CNO, clozapine-N-oxide]
neurons in which firing is inhibited [1]: 6/7 | SFO^nNOS-stimulated water intake ([2]; SFO^nNOS photostimulation): severely suppressed water consumption; also recorded: severely reduced | sucrose (300 mM) consumption ([2]; food-restricted animals): did not decrease sugar; also recorded: did not suppress sucrose consumption | dehydration-induced water intake ([2]; water-restricted animals): severely suppressed water consumption; also recorded: severely reduced | intake after water or food-restriction ([3]; AAV-DIO-mCherry in the MnPO of nNOS-Cre animals, 5-s brief access): showed no reduction | saline or water drinking, CNO vs vehicle ([3]; mCherry controls in MnPO^GLP1r, water deprived, 30 min): No significant difference
